Measured values as given in ChEMBL document CHEMBL2311509, “Synthesis and antiproliferative evaluation of 3-phenylquinolinylchalcone derivatives against non-small cell lung cancers and breast cancers” (Eur J Med Chem, 2013).
The source made the active and inactive calls. The rule behind the calls is not given here.

Experiments:
[1] = test system: MDA-MB-231; experiment: Antiproliferative activity against human MDA-MB-231 cells after 72 hrs by XTT assay; type: functional, cell-based; details: MDA-MB-231, 72 h
[2] = test system: SK-BR-3; experiment: Antiproliferative activity against human SKBR3 cells after 72 hrs by XTT assay; type: functional, cell-based; details: SK-BR-3, 72 h
[3] = test system: A549; experiment: Antiproliferative activity against human A549 cells after 72 hrs by XTT assay; type: functional, cell-based; details: A549, 72 h
[4] = Antiproliferative activity against human H184B5F5/M10 cells after 72 hrs by XTT assay; type: functional, cell-based; details: H184B5F5/M10, 72 h
[5] = Antiproliferative activity against human H460 cells after 72 hrs by XTT assay; type: functional, cell-based; details: NCI-H460, 72 h
[6] = test system: MCF7; experiment: Antiproliferative activity against human MCF7 cells after 72 hrs by XTT assay; type: functional, cell-based; details: MCF7, 72 h
[7] = Antiproliferative activity against human H1299 cells after 72 hrs by XTT assay; type: functional, cell-based; details: NCI-H1299, 72 h
[8] = test system: MDA-MB-231; experiment: Induction of cell cycle arrest in human MDA-MB-231 cells assessed as accumulation at subG1 phase at 1 uM after 24 hrs by flow cytometry (reference value: 3.3 +/- 1.5%); type: functional
[9] = test system: MDA-MB-231; experiment: Induction of cell cycle arrest in human MDA-MB-231 cells assessed as accumulation at S phase at 0.5 uM after 24 hrs by flow cytometry (reference value: 12.4 +/- 2.1%); type: functional
[10] = test system: MDA-MB-231; experiment: Induction of cell cycle arrest in human MDA-MB-231 cells assessed as accumulation at G1 phase at 1 uM after 24 hrs by flow cytometry (reference value: 63.1 +/- 2.7%); type: functional
[11] = test system: H184B5F5/M10; experiment: Antiproliferative activity against human H184B5F5/M10 cells at 0.1 to 5 uM after 12 to 48 hrs by XTT assay; type: functional, cell-based
[12] = test system: MDA-MB-231; experiment: Induction of cell cycle arrest in human MDA-MB-231 cells assessed as accumulation at subG1 phase at 0.5 uM after 24 hrs by flow cytometry (reference value: 3.3 +/- 1.5%); type: functional
[13] = test system: MDA-MB-231; experiment: Induction of cell cycle arrest in human MDA-MB-231 cells assessed as accumulation at G1 phase at 0.5 uM after 24 hrs by flow cytometry (reference value: 63.1 +/- 2.7%); type: functional
[14] = test system: MDA-MB-231; experiment: Induction of cell cycle arrest in human MDA-MB-231 cells assessed as accumulation at S phase at 0.1 uM after 24 hrs by flow cytometry (reference value: 12.4 +/- 2.1%); type: functional
[15] = test system: MDA-MB-231; experiment: Induction of cell cycle arrest in human MDA-MB-231 cells assessed as accumulation at subG1 phase at 0.1 uM after 24 hrs by flow cytometry (reference value: 3.3 +/- 1.5%); type: functional
[16] = test system: MDA-MB-231; experiment: Induction of cell cycle arrest in human MDA-MB-231 cells assessed as accumulation at G1 phase at 0.1 uM after 24 hrs by flow cytometry (reference value: 63.1 +/- 2.7%); type: functional
[17] = test system: MDA-MB-231; experiment: Antiproliferative activity against human MDA-MB-231 cells at 0.1 to 5 uM by XTT assay; type: functional, cell-based; details: TDE = time-dependent effect
[18] = test system: MDA-MB-231; experiment: Induction of apoptosis in human MDA-MB-231 cells assessed as PARP cleavage at 0.1 to 1 uM after 24 hrs by immunoblot method; type: functional, cell-based
[19] = test system: MDA-MB-231; experiment: Induction of morphological changes in human MDA-MB-231 cells at 0.5 uM after 24 hrs by light microscopy; type: functional, cell-based
[20] = test system: MDA-MB-231; experiment: Induction of cell cycle arrest in human MDA-MB-231 cells assessed as accumulation at G2/M phase at 1 uM after 24 hrs by flow cytometry (reference value: 22.1 +/- 3.1%); type: functional
[21] = test system: MDA-MB-231; experiment: Induction of apoptosis in human MDA-MB-231 cells assessed as caspase 3 activation at 0.1 to 1 uM after 24 hrs by immunoblot method; type: functional, cell-based
[22] = test system: MDA-MB-231; experiment: Antiproliferative activity against human MDA-MB-231 cells after 48 hrs by XTT assay; type: functional, cell-based
[23] = test system: MDA-MB-231; experiment: Induction of cell cycle arrest in human MDA-MB-231 cells assessed as accumulation at S phase at 1 uM after 24 hrs by flow cytometry (reference value: 12.4 +/- 2.1%); type: functional
[24] = test system: MDA-MB-231; experiment: Induction of cell cycle arrest in human MDA-MB-231 cells assessed as accumulation at G2/M phase at 0.1 uM after 24 hrs by flow cytometry (reference value: 22.1 +/- 3.1%); type: functional
[25] = test system: MDA-MB-231; experiment: Induction of cell cycle arrest in human MDA-MB-231 cells assessed as accumulation at G2/M phase at 0.5 uM after 24 hrs by flow cytometry (reference value: 22.1 +/- 3.1%); type: functional
[26] = Growth inhibition of human H1299 cells; type: functional; details: NCI-H1299
[27] = Growth inhibition of human Hep3B cells; type: functional, Hep 3B2
[28] = test system: MDA-MB-231; experiment: Growth inhibition of human MDA-MB-231 cells; type: functional

SMILES | IC50 [1] [µM] | IC50 [2] [µM] | IC50 [3] [µM] | IC50 [4] [µM] | IC50 [5] [µM] | IC50 [6] [µM] | IC50 [7] [µM] | other results
COc1ccc(-c2cc3ccccc3nc2/C=C/C(=O)c2c(OC)cccc2OC)cc1 | 5.63 | 3.83 | 7.41 | 4.47 | 6.63 | 4.52 | 4.71 | 
COc1ccc(-c2cc3ccccc3nc2/C=C/C(=O)c2ccco2)cc1 | 0.63 | 0.64 | 6.13 | 6.24 | 6.43 | 0.71 | 0.73 | 
COc1ccc(-c2cc3ccccc3nc2/C=C/C(=O)c2ccccn2)cc1 | 0.74 | 0.37 | 6.14 | 4.14 | 6.26 | 0.81 | 0.66 | 
COc1ccc(-c2cc3ccccc3nc2/C=C/C(=O)c2ccc(Br)s2)cc1 | < 0.1 | 0.52 | 6.25 | 9.38 | 5.17 | 0.91 | 0.71 | Activity [8]: 33.4%; Activity [9]: 10.1%; Activity [10]: 30.1%; Activity [11]: inactive; Activity [12]: 23.5%; Activity [13]: 39.6%; Activity [14]: 13.1%; Activity [15]: 8.1%; Activity [16]: 54.3%; Activity [17]: tde; Activity [18]: Dose-dependent effect; Activity [19]: Active; Activity [20]: 30.1%; Activity [21]: Dose-dependent effect; Activity [22]: Dose-dependent effect; Activity [23]: 7.2%; Activity [24]: 25.7%; Activity [25]: 28.3%
COc1ccc(-c2cc3ccccc3nc2C=O)cc1 | > 10 | > 10 | > 10 | > 10 | > 10 | > 10 | > 10 | 
COc1ccc(-c2cc3ccccc3nc2/C=C/C(=O)c2c[nH]c3ccccc23)cc1 | > 10 | 3.45 | > 10 | > 10 | 8.01 | > 10 | > 10 | 
COc1ccc(-c2cc3ccccc3nc2/C=C/C(=O)c2sccc2N)cc1 | > 10 | > 10 | > 10 | > 10 | > 10 | > 10 | > 10 | 
COc1ccc(-c2cc3ccccc3nc2/C=C/C(=O)c2ccc(O)cc2)cc1 | 6.35 | 3.88 | 7.44 | 5.69 | 6.93 | 6.71 | 8.97 | 
CC[C@@]1(O)C(=O)OCc2c1cc1n(c2=O)Cc2cc3c(CN(C)C)c(O)ccc3nc2-1 [TOPOTECAN] | < 0.1 | 8.91 |  | > 10 | 7.29 | 5.97 | 6.02 | 
COc1ccc(C(=O)/C=C/c2nc3ccccc3cc2-c2ccc(OC)cc2)cc1 | 7.54 | 9.28 | 8.5 | > 10 | > 10 | 7.38 | 6.42 | 
COc1ccc(-c2cc3ccccc3nc2/C=C/C(=O)c2ccccc2)cc1 | 0.86 | 0.7 | 7.41 | 8.56 | 6.67 | 4.04 | 1.41 | 
COc1ccc(-c2cc3ccccc3nc2/C=C/C(=O)c2ccc(F)cc2)cc1 | 0.83 | 0.81 | 8.32 | > 10 | 6.99 | 5.45 | 0.82 | 
COc1ccc(-c2cc3ccccc3nc2/C=C/C(=O)c2ccc([N+](=O)[O-])cc2)cc1 | 0.84 | 0.59 | 6.31 | 6.1 | 6.47 | 4.11 | 0.77 | 
Fc1ccc2nc(-c3ccc(OCCN4CCCCC4)cc3)c(-c3ccc(OCCN4CCCCC4)cc3)cc2c1 |  |  |  |  |  |  |  | GI50 [26]: 1.46 µM; GI50 [27]: 0.71 µM; GI50 [28]: 0.72 µM
COc1ccc(-c2cc3ccccc3nc2/C=C/C(=O)c2ccc[nH]2)cc1 | > 10 | > 10 | > 10 | > 10 | > 10 | > 10 | > 10 | 
COc1ccc(-c2cc3ccccc3nc2/C=C/C(=O)c2ccsc2)cc1 | 1.06 | 0.66 | 8.21 | 6.39 | 7.08 | 6.01 | 1.22 | 
COc1ccc(-c2cc3ccccc3nc2/C=C/C(=O)c2ccc(N)cc2)cc1 | 7.51 | 8.56 | 7.53 | 9.29 | 7.4 | 6.92 | 6.51 | 
COc1ccc(-c2cc3ccccc3nc2/C=C/C(=O)c2ccc(OC)c(OC)c2)cc1 | 4.79 | 3.26 | 8.86 | 7.24 | 7.54 | 6.03 | 1.05 | 
COc1ccc(-c2cc3ccccc3nc2/C=C/C(=O)c2ccc(OC)cc2OC)cc1 | 3.21 | 2.26 | 7.99 | 6.11 | 7.04 | 6.26 | 3.77 | 
COc1ccc(-c2cc3ccccc3nc2/C=C/C(=O)c2cnc(N)nc2C)cc1 | > 10 | > 10 | > 10 | > 10 | > 10 | > 10 | > 10 | 
COc1ccc(-c2cc3ccccc3nc2/C=C/C(=O)c2cccs2)cc1 | 0.41 | 0.8 | 0.92 | 7.03 | 5.44 | 1.03 | 0.72 | 
COc1ccc(-c2cc3ccccc3nc2/C=C/C(=O)c2cc(OC)cc(OC)c2)cc1 | 0.92 | 0.47 | 9.52 | 6.66 | 7.52 | 3.23 | 0.93 | 
